These results are taken from patent publication US20150265633A1, “STEROID CONTAINING DRUG DELIVERY SYSTEM” (Allergan, Inc., priority 2007, published 2015).

Values after ≈ are worked out from the molar mass of the structure shown.

One data set can be described thus: Water solubility. The data set is classed as physicochemical.
Data set [1] in a line: Lipophilicity (log P, octanol/water partition coefficient). The text has this: Log P is the lipophilicity coefficient, where P is the octonol/water partition coefficient.
Data set [2] deals with VEGF-induced BRB and BAB breakdown in rabbit eye. Description: Rabbit model of VEGF-induced BRB and BAB breakdown, scanning ocular fluorophotometry, aqueous steroid suspensions (Example 1). The data set is classed as in vivo. Conditions: for inhibition of VEGF-induced BAB breakdown (iris leakage, anterior segment) / inhibition of VEGF-induced BRB breakdown (retinal leakage, posterior segment): 1 mg (100 μl of 10 mg/ml suspension) intravitreal, VEGF one month thereafter, fluorophotometry 48 hrs after VEGF; for block of VEGF-induced BAB breakdown (iris leakage) / block of VEGF-induced BRB breakdown (retinal leakage): rabbit, corticosteroid administered systemically or intravitreally.
Experimental: An in vivo (rabbit eye) experiment was carried out with liquid glucocorticoid derivative formulations. Recombinant vascular endothelial growth factor (VEGF) was obtained from a supplier (R&D Systems). Female Dutch Belt rabbits were anaesthetized with isoflurane inhalation and topical 0.5% proparacaine hydrochloride, and intravitreal injection of one eye with 500 ng VEGF in sterile phosphate buffered saline (PBS) containing 0.1% bovine serum albumin was performed using a 28 gauge ½ inch needle. The other eye is given the same volume of the vehicle, without the VEGF.
The extent of VEGF-induced BRB and BAB breakdown of the blood retinal barrier and the blood aqueous barrier was measured by scanning ocular fluorophotemetry (Fluorotron Master, Ocumetrics Inc.); at various times following intravitreal injection. In this model a fluorescent label is administered intravenously, following by determination of the amount of fluorescenin in the anterior and posterior segment and an indication of iridial and retinal leakage, respectively.
VEGF injection mimics this pathological condition.
Sodium fluorescein in 1 ml saline was injected via the marginal ear vein at a concentration of 50 mg/kg, and ocular fluorescein levels in the vitreoretinal chamber and the anterior chamber was determined 50 minutes later.
Ten milligrams of each compound is added to 1 ml of sterile phosphate-buffered saline (PBS; ph 7.4). At day 0, 100 μl of a 10 mg/ml suspension of each steroid is injected into the vitreous of a rabbit eye. The PBS vehicle is injected into the other eye. VEGF is then injected at a pre-determined time (one month) thereafter, and BRB and BAB breakdown were measured by scanning ocular fluorophotometry 48 hrs later as described in Edelman et al., EXP.

Data set [3] relates to wet age-related macular degeneration. Description: Treatment of ARMD with a viscous GD formulation (Example 5). The data set is classed as in vivo, human. As to conditions: intravitreal 100 μl hyaluronic acid solution with about 1000 μg crystals in suspension. Here is the method: A person with wet age-related macular degeneration is treated with an intravitreal injection of 100 μl of a hyaluronic acid solution containing about 1000 μg of fluticasone propionate crystals in suspension.

A further data set deals with cystic macular edema. Description: Treatment of macular edema with a solid GD implant (Example 4). The data set is classed as in vivo, human. Here is the method: A person diagnosed with cystic macular edema treated by administration of a biodegradable drug delivery system administered to each eye of the patient. […] A similar implant is administered subconjunctivally to the patient's right eye. […] No increase in intraocular pressure is seen one week after administration.

The mark [4] stands for this setting: 500 ng VEGF intravitreal, 48 hours after injection, 50 minutes after fluorescein.
Where [5] appears, read: after about 3 months from the surgery, 2 mg PLGA implant with about 1000 μg drug.

Usually logP stands for a log measure of how a compound divides between an organic and an aqueous phase. Low values mean a more hydrophilic compound, high ones a more lipophilic compound. Usually solubility stands for the dissolved amount per volume that the medium holds. Read a low solubility as little dissolved substance.

As for `CC1(C)O[C@@H]2C[C@H]3[C@@H]4CCC5=CC(=O)C=C[C@]5(C)[C@@]4(F)[C@@H](O)C[C@]3(C)[C@]2(C(=O)CO)O1` [Triamcinolone acetonide], in “Water solubility”, the “Water Solubility” value came to 21 µg/mL. The logP in data set [1] (octanol/water) was 2.53. In data set [2] (rabbit eye), the “inhibition of VEGF-induced BAB breakdown (iris leakage, anterior segment)” value (“inhibition of VEGF-induced BAB breakdown” for short) was “completely inhibited” and the “inhibition of VEGF-induced BRB breakdown (retinal leakage, posterior segment)” value (“inhibition of VEGF-induced BRB breakdown” for short) is reported as “completely inhibited”. Moreover, in data set [2], the “block of VEGF-induced BAB breakdown (iris leakage)” value was “completely blocked” and the “block of VEGF-induced BRB breakdown (retinal leakage)” value is recorded as “completely blocked”.

In the data set “Water solubility” (water), `CCC(=O)O[C@]1(C(=O)SCF)[C@H](C)C[C@H]2[C@@H]3C[C@H](F)C4=CC(=O)C=C[C@]4(C)[C@@]3(F)[C@@H](O)C[C@@]21C` [Fluticasone propionate] registered a solubility of 0.14 µg/mL (≈ 0.28 µM). Also, in data set [1], the “Lipophicity (log P)” value is given as 4.20 and the logP amounted to 4.2. Further, in data set [2] (rabbit eye), the “inhibition of VEGF-induced BAB breakdown” value is given as “no effect” and the “inhibition of VEGF-induced BRB breakdown” value is recorded as “completely blocks”. Besides, in data set [3], the “quality of life reported by patient” value is reported as “overall improvement”. Besides, the “rate of neovascularization and related inflammation” value in data set [3] (within one month) is recorded as “acceptable reduction”.

With `C[C@@H]1C[C@H]2[C@@H]3CCC4=CC(=O)C=C[C@]4(C)[C@@]3(F)[C@@H](O)C[C@]2(C)[C@@]1(O)C(=O)CO` [Dexamethasone], in data set [1], the “Lipophicity (log P)” value is 1.95 and the logP was 1.95.

Regarding VEGF, in data set [2] (setting [4]), the “increase in fluorescein contained in the aqueous (BAB breakdown) compared to normal untreated rabbit eyes” value is “approximately 6 fold” and the “increase in fluorescein contained in the vitreous (BRB breakdown) compared to normal untreated rabbit eyes” value is given as “approximately 18 fold”.

Take `C[C@H]1C[C@H]2[C@@H]3CCC4=CC(=O)C=C[C@]4(C)[C@@]3(Cl)[C@@H](O)C[C@]2(C)[C@@]1(O)C(=O)CO` [beclomethasone]: in data set [2] (rabbit eye), the “inhibition of VEGF-induced BAB breakdown” value is on record as “inhibited” and the “inhibition of VEGF-induced BRB breakdown” value is “inhibited”. In data set [2], the “block of VEGF-induced BAB breakdown (iris leakage)” value is “completely blocked” and the “block of VEGF-induced BRB breakdown (retinal leakage)” value is “completely blocked”.

With `CCC(=O)OCC(=O)[C@@]1(OC(=O)CC)[C@@H](C)C[C@H]2[C@@H]3CCC4=CC(=O)C=C[C@]4(C)[C@@]3(Cl)[C@@H](O)C[C@@]21C` [Beclomethasone dipropionate, beclomethasone 17,21-dipropionate], in data set [1], the “Lipophicity (log P)” value is on record as 4.40 and the logP was found to be 4.4. In data set [2] (rabbit eye), the “inhibition of VEGF-induced BAB breakdown” value is recorded as “no effect” and the “inhibition of VEGF-induced BRB breakdown” value is recorded as “completely blocks”. Besides, in data set [2] (rabbit eye, 100 μl of 10 mg/ml intravitreal), the “duration of complete inhibition of VEGF-mediated responses” value is recorded as “greater than 3 months”. Also, in the data set with cystic macular edema (setting [5]), the “appearance of the retina” value is given as “appears normal” and the “degeneration of the optic nerve” value is “appears to be reduced”. The “increase in intraocular pressure” value with cystic macular edema (one week after administration, 2 mg PLGA implant with about 1000 μg drug) was “No increase”. For the same compound, the “reduction in retinal thickness” value in the data set with cystic macular edema (right eye (implant subconjunctival) versus left eye (intravitreal), 2 mg implant, about 1000 μg PLGA and about 1000 μg drug) is on record as “more rapid reduction”.
